We go through 23 compounds from patent US20080139536A1, “Benzodiazepines for Treating or Preventing Rsv Infection” (Novartis Pharmaceuticals Corporation, priority 2004, published 2008).

This experiment relates to RSV (RSS strain). Description: RSV ELISA antigen reduction assay in Hep-2 cells. Conditions: RSV-infected Hep-2 cells, 3 day assay, ELISA OD 490 nm, 7-point dilution 50 μM-0.78 μM. The class given is cell-based, Respiratory Syncytial Virus. The method, then:
This was quantified by optical density (OD) measurement.
This assay was set up using all 96 wells of flat-bottomed 96-well plates. The outer wells were not subjected to any greater amount of evaporation than the inner wells during the 3 day assay period. (i.e. No “edge effect” seen).
Plates were set up one day before addition of virus and compounds. The assay then ran for 3 days with ELISA development taking place on the 4th day.
All 96 wells of a microtitre plate were seeded at a density of 4×10^3 Hep-2 cells/well in 100 μl/well of Growth Medium (GM) consisting of Dulbecco's MEM (DMEM) with Glutamax-1, Sodium Pyruvate, 1000 mg/l glucose and pyridoxine (Invitrogen, catalogue number 21885-025) and supplemented with 10% FBS. (See Plate 1).
A frozen vial of RSV (RSS strain provided by Virogen Ltd) stock solution was removed from the −80 freezer or liquid nitrogen store and diluted to a known Multiplicity of Infection (m.o.i) in Growth Medium.
The m.o.i. was calculated by prior titration of the virus stock (by the ELISA assay method) as the virus input required to achieve a window of at least 0.8 OD units between infected and uninfected control wells.
50 μl of diluted virus was added to infected, “virus+”, wells by multichannel pipette; 50 μl of Growth Medium was added to uninfected, cell control wells (CC) by multichannel pipette. (See Plate 2)
Plates were incubated at 37° C. for 1 hr to allow virus adsorption.
Compounds were made up at 4× strength in GM containing 2% DMSO (a final DMSO concentration in the assay of 0.5%).
Six compounds were tested on each assay plate as illustrated below. (See Plate 3). Compounds were tested in duplicate wells across a 7-point dilution series (from 50 μM-0.78 μM): in the presence of virus.
Virus infected, untreated wells served as the virus control (VC); Uninfected, untreated wells serve as the cell control (CC). The difference in absorbance between CC and VC wells constitutes the assay window.
200 μl of GM containing 2% DMSO was added to all wells except the ‘50 μM’ or first column, to which 392 μl of GM was added. 8 μl of each test compound was cherry-picked from a thawed Arrow screening plate and transferred to the appropriate well in the ‘50 μM’ column. Since the compound stock was at 10 mM in 100% DMSO, this will maintain the DMSO level at 2% at the top compound concentration.
Using a multichannel pipette, 200 μl was transferred from the 50 μM column to the 25 μM column, then to the 12.5 μM column and so on across the dilution plate creating a serial doubling dilution. Compounds were mixed upon transfer and tips changed between transfers, ensuring also that no compound was transferred to the last column of compound-free wells (0 μM).
The dilution plate was turned lengthways and 50 μl of compound easily transferred by multichannel pipette from the dilution plate to the assay plate, column by column. There was therefore an excess of 100 μl remaining in the dilution plate.
Plates were incubated at 37° C., 5% CO2 for 3 days.
Media was tapped out from wells directly into Virkon (1% solution in water) and plates were washed by immersing in a plastic box containing PBS. 50 μl/well of 75%/25% vol/vol acetone/methanol fixative was added by multichannel pipette and left for 3 mins.
Some 200 μl of blocking solution (2% Marvel in PBS containing 0.05% Tween) was added per well by multichannel pipette. Plates were incubated at 37° C. in a shaking incubator for 60 mins.
RSV mouse monoclonal antibody NCL-RSV3 (Novocastra) was diluted 1/400 in PBS/2% Marvel/0.05% Tween and 50 μl was added per well. Plates were incubated at 37° C. in a shaking incubator for 90 mins.
DAKo rabbit anti-mouse HRP conjugate (DAKO catalogue number P0260) was diluted 1/1000 in PBS/2% Marvel/0.05% Tween and 50 μl was added per well. Plates were incubated at 37° C. in a shaking incubator for 60 mins.
Substrate (SigmaFast OPD) was prepared in advance by dissolving 1 urea tablet in 20 mL water. […]
(An ELISA detects its analyte on a solid surface through an enzyme-linked reagent.)

Setting [1] is: human respiratory syncytial virus, 72 h.

For orientation: IC50 means the point on the concentration scale where inhibition reaches its midpoint. A lower IC50 goes with greater potency. The compound `CN1CCN(c2ccc(C(=O)NC3N=C(c4ccccc4)c4ccccc4NC3=O)cn2)CC1` (racemic) [Example 1, 6-(4-Methyl-piperazin-1-yl)-N-(2-oxo-5-phenyl-2,3-dihydro-1H-benzo[e][1,4]diazepin-3-yl)-nicotinamide] had an IC50 under setting [1] of 5 to 10 µM. Same read-out and setting: with `Cc1occ(S(=O)(=O)N2CCOCC2)c1C(=O)N[C@H]1N=C(c2ccccc2)c2ccccc2NC1=O` [Example 46, (S)-2-Methyl-4-(morpholin-4-sulfonyl)-furan-3-carboxylic acid (2-oxo-5-phenyl-2,3-dihydro-1H-benzo[e][1,4]diazepin-3-yl)-amide] the figure was 5 to 10 µM; with `O=C(N[C@H]1N=C(c2ccccc2)c2ccccc2NC1=O)c1cc(CN2CCOCC2)on1` [Example 43, (S)-5-Morpholin-4-ylmethyl-isoxazole-3-carboxylic acid (2-oxo-5-phenyl-2,3-dihydro-1H-benzo[e][1,4]diazepin-3-yl)-amide], < 5 µM.

For the compound `O=C(N[C@H]1N=C(c2ccccc2)c2ccccc2NC1=O)c1cc(Cl)ccc1N1CCS(=O)(=O)CC1` [Example 6, (S)-5-Chloro-2-(1,1-dioxo-1λ6-thiomorpholin-4-yl)-N-(2-oxo-5-phenyl-2,3-dihydro-1H-benzo[e][1,4]diazepin-3-yl)-benzamide], the concentration for half-maximal inhibition (IC50) under setting [1] was in the range of 5 to 10 µM. As for “(S)-2-(1,1-Dioxo-1λ6-thiomorpholin-4-yl)-N-(2-oxo-5-phenyl-2,3-dihydro-1H-benzo[e][1,4]diazepin-3-yl)-nicotinamide [Example 22]”, the half-maximal inhibitory concentration (IC50) is > 10 µM. The same measure, in the same setting: the figure for `O=C(N[C@H]1N=C(c2ccccc2)c2ccccc2NC1=O)c1c(Cl)cccc1N1CCS(=O)(=O)CC1` [Example 26, (S)-2-Chloro-6-(1,1-dioxo-1,6-thiomorpholin-4-yl)-N-(2-oxo-5-phenyl-2,3-dihydro-1H-benzo[e][1,4]diazepin-3-yl)-benzamide] is < 5 µM. Regarding `O=C(N[C@H]1N=C(c2ccccc2)c2ccccc2NC1=O)c1ccc(CN2CCOCC2)o1` [Example 32, (S)-5-Morpholin-4-ylmethyl-furan-2-carboxylic acid (2-oxo-5-phenyl-2,3-dihydro-1H-benzo[e][1,4]diazepin-3-yl)-amide], the IC50 under setting [1] was < 5 µM. In the case of `O=C(N[C@H]1N=C(c2ccccc2)c2ccccc2NC1=O)c1ncoc1-c1ccccc1` [Example 51, (S)-5-Phenyl-oxazole-4-carboxylic acid (2-oxo-5-phenyl-2,3-dihydro-1H-benzo[e][1,4]diazepin-3-yl)-amide], under setting [1], the IC50 is < 5 µM. With `O=C(N[C@H]1N=C(c2ccccc2)c2ccccc2NC1=O)c1ccc(N2CCOCC2)cc1Cl` [Example 4, (S)-2-Chloro-4-morpholin-4-yl-N-(2-oxo-5-phenyl-2,3-dihydro-1H-benzo[e][1,4]diazepin-3-yl)-benzamide], the concentration for half-maximal inhibition (IC50) under setting [1] was < 5 µM. For `O=C(N[C@H]1N=C(c2ccccc2)c2ccccc2NC1=O)c1ccoc1CN1CCOCC1` [Example 41, (S)-2-Morpholin-4-ylmethyl-furan-3-carboxylic acid (2-oxo-5-phenyl-2,3-dihydro-1H-benzo[e][1,4]diazepin-3-yl)-amide], the IC50 under setting [1] is < 5 µM. As for `O=C(N[C@H]1N=C(c2ccccc2)c2ccccc2NC1=O)c1cc(C(F)(F)F)ccc1N1CCCC1` [Example 19, (S)—N-(2-Oxo-5-phenyl-2,3-dihydro-1H-benzo[e][1,4]diazepin-3-yl)-2-pyrrolidin-1-yl-5-trifluoromethyl-benzamide], under setting [1], the half-maximal inhibitory concentration (IC50) is < 5 µM. The same measure, in the same setting: the figure for `O=C(N[C@H]1N=C(c2ccccc2)c2ccccc2NC1=O)c1csc(-c2ccncc2)n1` [Example 39, (S)-2-Pyridin-4-yl-thiazole-4-carboxylic acid (2-oxo-5-phenyl-2,3-dihydro-1H-benzo[e][1,4]diazepin-3-yl)-amide] is < 5 µM; for `O=C(N[C@H]1N=C(c2ccccc2)c2ccccc2NC1=O)c1sccc1CN1CCOCC1` [Example 48, (S)-3-Morpholin-4-ylmethyl-thiophene-2-carboxylic acid (2-oxo-5-phenyl-2,3-dihydro-1H-benzo[e][1,4]diazepin-3-yl)-amide] it is < 5 µM; for `O=C(N[C@H]1N=C(c2ccccc2)c2ccccc2NC1=O)c1ccc(F)cc1N1CCCCC1` [Example 12, (S)-4-Fluoro-N-(2-oxo-5-phenyl-2,3-dihydro-1H-benzo[e][1,4]diazepin-3-yl)-2-piperidin-1-yl-benzamide] it is 5 to 10 µM.

Regarding `O=C(N[C@H]1N=C(c2ccccc2)c2ccccc2NC1=O)c1ccc(C(F)(F)F)cc1N1CCOCC1` [Example 18, (S)-2-Morpholin-4-yl-N-(2-oxo-5-phenyl-2,3-dihydro-1H-benzo[e][1,4]diazepin-3-yl)-4-trifluoromethyl-benzamide], the half-maximal inhibitory concentration (IC50) under setting [1] is < 5 µM. Same read-out and setting: with `O=C(N[C@H]1N=C(c2ccccc2)c2ccccc2NC1=O)c1ccc(C(F)(F)F)cc1N1CCCC1` [Example 16, (S)—N-(2-Oxo-5-phenyl-2,3-dihydro-1H-benzo[e][1,4]diazepin-3-yl)-2-pyrrolidin-1-yl-4-trifluoromethyl-benzamide] the figure was 5 to 10 µM. Still for that read-out and setting: with `O=C(N[C@H]1N=C(c2ccccc2)c2ccccc2NC1=O)c1ccc(C(F)(F)F)cc1N1CCCCC1` [Example 17, (S)—N-(2-Oxo-5-phenyl-2,3-dihydro-1H-benzo[e][1,4]diazepin-3-yl)-2-piperidin-1-yl-4-trifluoromethyl-benzamide] the figure was 5 to 10 µM; with `O=C(NC1N=C(c2ccccc2)c2ccccc2NC1=O)c1ccccc1N1CCOCC1` (racemic) [Example 50, 2-Morpholin-4-yl-N-(2-oxo-5-phenyl-2,3-dihydro-1H-benzo[e][1,4]diazepin-3-yl)-benzamide], < 5 µM.

For the compound `O=C(N[C@H]1N=C(c2ccccc2)c2ccccc2NC1=O)c1ccc(-c2ccccn2)s1` [Example 45, (S)-5-Pyridin-2-yl-thiophene-2-carboxylic acid (2-oxo-5-phenyl-2,3-dihydro-1H-benzo[e][1,4]diazepin-3-yl)-amide], the IC50 under setting [1] was < 5 µM. The same measure, in the same setting: with `Cc1ccc(C(=O)N[C@H]2N=C(c3ccccc3)c3ccccc3NC2=O)c(N2CCS(=O)(=O)CC2)c1` [Example 24, (S)-2-(1,1-Dioxo-1λ6-thiomorpholin-4-yl)-4-methyl-N-(2-oxo-5-phenyl-2,3-dihydro-1H-benzo[e][1,4]diazepin-3-yl)-benzamide] the figure was < 5 µM; with `Cc1nc(-c2cnccn2)sc1C(=O)N[C@H]1N=C(c2ccccc2)c2ccccc2NC1=O` [Example 40, (S)-4-Methyl-2-pyrazin-2-yl-thiazole-5-carboxylic acid (2-oxo-5-phenyl-2,3-dihydro-1H-benzo[e][1,4]diazepin-3-yl)-amide], 5 to 10 µM; with `O=C(NC1N=C(c2ccccc2)c2ccccc2NC1=O)c1ccc(N2CCCCC2)nc1` (racemic) [Example 2, 3,4,5,6-Tetrahydro-2H-[1,2′]bipyridinyl-5′-carboxylic acid (2-oxo-5-phenyl-2,3-dihydro-1H-benzo[e][1,4]diazepin-3-yl)-amide], 5 to 10 µM. With `O=C(N[C@H]1N=C(c2ccccc2)c2ccccc2NC1=O)c1cc(C(F)(F)F)ccc1N1CCOCC1` [Example 20, (S)-2-Morpholin-4-yl-N-(2-oxo-5-phenyl-2,3-dihydro-1H-benzo[e][1,4]diazepin-3-yl)-5-trifluoromethyl-benzamide], the IC50 under setting [1] was > 10 µM.
